Legend:
[1] = Visual appearance / dissolution of vitamin E-containing components in demineralized water, on preparation and during storage; format: physicochemical; conditions: about 150 ppm in demineralized water; for Appearance / dissolution on preparation: after homogenizing or stirring; for Appearance during / after storage: six weeks at ambient temperature
Method: (§1) Sample 1: Vitamin E oil (0.15 g) was added to 1000 g of demineralized water. The mixture was homogenized for approximately 60 minutes using a Gifford-Wood homogenizer, Model 1 L form Greerco Corporation. The sample was very cloudy. The turbidity of the sample was measured using a Hach turbidimeter Model Ratio/XR. The turbidity of the demineralized water was also measured prior to addition of the vitamin E. The sample was stored at ambient temperature for six weeks. […] The sample was shaken well and the turbidity measured.
(§2) Sample 2: Vitamin E acetate oil (0.25 g) from Sigma-Aldrich was added to 1681 g of demineralized water. […] The turbidity of the dispersion was measured and then again after storage for six weeks at ambient temperature.
(§3) Sample 3: Vitamin E succinate powder (0.27 g) from Sigma-Aldrich was added to 1792 g of demineralized water. The mixture was homogenized for approximately 60 minutes. […] The turbidity of the dispersion was measured and then again after storage for six weeks at ambient temperature.
(§4) This solution was stirred at ambient temperature using a magnetic stirrer for several minutes. […] The turbidity of the solution was measured and then measured again after storage at ambient temperature for six weeks.
(§5) Sample 6: To 1790 g of demineralized water was added 0.27 g of a mixture consisting of d,l-α-tocopheryl acetate, modified food starch, and silica. This product is commercially available from Roche Vitamins, Inc., under the name “Dry Vitamin E 15% CC”. The aqueous mixture was agitated for about thirty minutes using a magnetic stirrer. […] The turbidity of the solution was measured and then re-measured after storage for six weeks at ambient temperature.
(§6) Sample 7: To 1802 g of demineralized water was added 0.27 g of a mixture consisting of d-α-tocopheryl acetate, Polysorbate 60, and ethyl alcohol. This product is commercially available from ADM under the name “E 230 Clear®”. The mixture was agitated for about ten minutes using a magnetic stirrer. […] The turbidity of the solution was measured and then re-measured after storage for six weeks at ambient temperature.

[2] = Turbidity of aqueous dispersions and solutions of vitamin E-containing components in demineralized water (Hach turbidimeter Model Ratio/XR); format: physicochemical; conditions: 150 +/- 5 ppm in demineralized water; for Turbidity (Initially doped water): initial; for Turbidity (6 wks after doping): six weeks at ambient temperature
Method: Preparation of aqueous dispersions and solutions of vitamin E-containing components.
as §1, §2, §3, §4, §5, §6

| SMILES | Appearance / dissolution on preparation [1] | Appearance during / after storage [1] | Turbidity (Initially doped water) [2] [NTU] | Turbidity (6 wks after doping) [2] [NTU] |
| --- | --- | --- | --- | --- |
| Cc1c(C)c2c(c(C)c1O)CC[C@@](C)(CCC[C@H](C)CCC[C@H](C)CCCC(C)C)O2 [Sample 1, d-α-Tocopherol] | very cloudy | an immiscible layer of oil formed on top of the water | 55 | 68 |
| CC(=O)Oc1c(C)c(C)c2c(c1C)CC[C@@](C)(CCC[C@H](C)CCC[C@H](C)CCCC(C)C)O2 [Sample 2, d-α-Tocopherol acetate] | some immiscible oil droplets remained on the surface of the water | Immiscible oil droplets were still on the surface of the water | 52 | 61 |
| Cc1c(C)c2c(c(C)c1OC(=O)CCC(=O)O)CCC(C)(CCCC(C)CCCC(C)CCCC(C)C)O2 (stereo not drawn) [Sample 3, d,l-α-Tocopherol succinate] | A small amount of powder continued to float on the surface of the water | A small amount of powder continued to reside on the surface of the water | 8 | 22 |

Reference: patent US20070141203A1, “Beverages containing water-soluble vitamin E” (priority 2003, published 2007)
